Results on five compounds are retold here after patent US20260226059A1, “HETEROCYCLIC COMPOUNDS AS PI3Ka INHIBITORS” (Pikavation Therapeutics, Inc., priority 2023, published 2026).

Bounds are passed on as bounds.

The test system of this test is T47D (PIK3CA H1047R) cells. As to the kind of experiment: PS473 AKT assay in T47D (PIK3CA H1047R) cells. The conditions noted are these: Homo sapiens, pSer473 AKT, DMEM with 2.5% FBS, compound treatment 2 h, read-out: T47D_IC50. It is filed as cell-based. The procedure:
T47D (PIK3CA H1047R) cells were cultured using 10-cm petri dishes with recommended medium plus 10% fetal bovine serum. One day before the assay, cells were seeded in 96-well plates. After overnight incubation, the medium was changed to DMEM with 2.5% fetal bovine serum (FBS) and the cells were treated with different concentrations of the compounds for 2 h. Cells were then fixed using 4% paraformaldehyde at room temperature for 20 min. Aspirate 4% paraformaldehyde, and wash cells using 1× regular phosphate buffered saline 3 times, 5 min each. Aspirate any residual phosphate buffered saline and block cells using 10% goat serum containing 1% bovine serum albumin and 0.3% Triton X-100 at room temperature for 1 h. Without any additional washing, primary antibodies (rabbit anti-pSer473 AKT) were diluted using blocking buffer and added at a final volume of 50 microliter per well. Keep assay plates with primary antibodies overnight at 4° C. Wash cells using 1× regular phosphate buffered saline 3 times, 5 min each. After the final wash, incubate cells with horseradish peroxidase-conjugated secondary antibodies (goat Anti-rabbit IgG) diluted using the same blocking buffer at room temperature for 1 h. Wash cells thoroughly using 1× regular phosphate buffered saline 3 times, 5 min each. Aspirate any residual phosphate buffered saline. Add Super-Signal ELISA Pico Chemiluminescent Substrate at a final volume of 100 microliter per well. Read plates on i3x Multi-Mode Microplate Reader and calculate IC50 values using GraphPad Prism software.

In the case of `CCN1CCn2c1nc1c(C(C)Nc3ccc(Cl)nc3C(=O)O)cc(C)cc1c2=O` (centres unmarked) [Example 2, 6-Chloro-3-((1-(1-ethyl-7-methyl-5-oxo-1,2,3,5-tetrahydroimidazo[2,1-b]quinazolin-9-yl)ethyl)amino)picolinic acid], the IC50 is less than 1000 nM.

For `CCN1CCn2c1nc1c(C(C)Nc3ccccc3C(=O)O)cc(C)cc1c2=O` (centres unmarked) [Example 1, 2-((1-(1-Ethyl-7-methyl-5-oxo-1,2,3,5-tetrahydroimidazo[2,1-b]quinazolin-9-yl)ethyl)amino)benzoic acid], the IC50 is 1000 to 5000 nM. The figure for `Cc1cc(C(C)Nc2ccc(Cl)nc2C(=O)O)c2nc3n(c(=O)c2c1)CCc1ccccc1-3` (centres unmarked) [Example 5, 6-Chloro-3-((1-(10-methyl-8-oxo-5,8-dihydro-6H-isoquinolino[1,2-b]quinazolin-12-yl)ethyl)amino)picolinic acid] is less than 1000 nM; for `Cc1cc(C(C)Nc2ccc(C)nc2C(=O)O)c2nc3n(c(=O)c2c1)CCc1ccccc1-3` (centres unmarked) [Example 4, 6-Methyl-3-((1-(10-methyl-8-oxo-5,8-dihydro-6H-isoquinolino[1,2-b]quinazolin-12-yl)ethyl)amino)picolinic acid] it is less than 1000 nM; for `Cc1cc(C(C)Nc2ccccc2C(=O)O)c2nc3n(c(=O)c2c1)CCc1ccccc1-3` (centres unmarked) [Example 3, 2-((1-(10-Methyl-8-oxo-5,8-dihydro-6H-isoquinolino[1,2-b]quinazolin-12-yl)ethyl)amino)benzoic acid] it is less than 1000 nM.
